Consider 17 compounds from patent publication US7279494B2, “Antimicrobial [3.1.0] bicyclohexylphenyl-oxazolidinone derivatives and analogues” (Pfizer Inc., priority 2003, dated 2007).

Converted amounts (≈) assume the structure as drawn.

Common to all, as to format: cell-based
The subject of assay [1] is S. pneumoniae UC9912. Put plainly: MIC by standard agar dilution, S. pneumoniae UC9912. The following applies: incubated overnight at 35° C.; for MIC: Streptococcus pneumoniae, UC9912, Mueller Hinton agar; for S. pneumoniae UC9912 MIC: Mueller Hinton agar. The source says:
(§1) The in vitro activity of compounds of the subject invention may be assessed by standard testing procedures such as the determination of minimum inhibitory concentration (MIC) by agar dilution as described in “Approved Standard. Methods for Dilution Antimicrobial Susceptibility Tests for Bacteria that Grow Aerobically,” 3rd ed., published 1993 by the National Committee for Clinical Laboratory standards, Villanova, Pa., USA.
(§2) The in vitro MICs of test compounds may be determined by a standard agar dilution method. A stock drug solution of each analog is prepared in a preferred solvent, usually DMSO:H2O (1:3). Serial 2-fold dilutions of each sample are made using 1.0 mL aliquots of sterile distilled water. To each 1.0 mL aliquot of drug is added 9 mL of molten Mueller Hinton agar medium. The drug-supplemented agar is mixed, poured into 15×100 mm petri dishes, and allowed to solidify and dry prior to inoculation.
(§3) Vials of each of the test organisms are maintained frozen in the vapor phase of a liquid nitrogen freezer. Test cultures are grown overnight at 35° C. on the medium appropriate for the organism. Colonies are harvested with a sterile swab, and cell suspensions are prepared in Trypticase Soy broth (TSB) to equal the turbidity of a 0.5 McFarland standard. A 1:20 dilution of each suspension is made in TSB. The plates containing the drug supplemented agar are inoculated with a 0.001 mL drop of the cell suspension using a Steers replicator, yielding approximately 10^4 to 10^5 cells per spot. The plates are incubated overnight at 35° C.
(§4) Following incubation the Minimum Inhibitory Concentration (MIC μg/mL), the lowest concentration of drug that inhibits visible growth of the organism, is read and recorded.
Background: Agar dilution tests growth on a series of plates holding different concentrations.

For assay [2], the system named is H. influenzae 30063. The experiment in a line: MIC by standard agar dilution, H. influenzae 30063. The following applies: Mueller Hinton agar, incubated overnight at 35° C.; for MIC: Haemophilus influenzae, 30063, agar dilution, read-out: H. influenzae 30063 MIC.
Text: as §1, §2, §3, §4

The subject of assay [3] is S. aureus UC9213. The experiment in a line: MIC by standard agar dilution, S. aureus UC9213. To be noted: incubated overnight at 35° C.; for MIC: Staphylococcus aureus, UC9213, Mueller Hinton agar; for S. aureus UC9213 MIC: Mueller Hinton agar.
Text: as §1, §2, §3, §4

For `CC(=O)NC[C@H]1CN(c2ccc([C@H]3[C@@H]4C[S+]([O-])C[C@@H]43)c(F)c2)C(=O)O1` (stereo partly drawn) [Example 2, N-[((5S)-3-{3-fluoro-4-[exo-(1R,5S)-3-oxido-3-thiabicyclo[3.1.0]hex-6-yl]phenyl}-2-oxo-1,3-oxazolidin-5-yl)methyl]acetamide], the MIC in assay [1] worked out at 0.25 µg/mL (≈ 0.682 µM); in assay [2], 2 µg/mL (≈ 5.46 µM); in assay [3], 2 µg/mL (≈ 5.46 µM).

In the case of `CC(=O)NC[C@H]1CN(c2ccc([C@H]3[C@@H]4CS(=O)(=O)C[C@@H]43)c(F)c2)C(=O)O1` [Example 3, N-[((5S)-3-{4-[exo-(1R,5S)-3,3-dioxido-3-thiabicyclo[3.1.0]hex-6-yl]-3-fluorophenyl}-2-oxo-1,3-oxazolidin-5-yl)methyl]acetamide], the MIC stood at 0.25 µg/mL (≈ 0.654 µM) in assay [1], 4 µg/mL (≈ 10.5 µM) in assay [2] and 2 µg/mL (≈ 5.23 µM) in assay [3].

Turning to `CC(=O)NC[C@H]1CN(c2ccc([C@H]3[C@@H]4COC[C@@H]43)c(F)c2)C(=O)O1` [Example 4, N-[((5S)-3-{3-fluoro-4-[exo-(1R,5S)-3-oxabicyclo[3.1.0]hex-6-yl]phenyl}-2-oxo-1,3-oxazolidin-5-yl)methyl]acetamide], the MIC was 0.5 µg/mL (≈ 1.5 µM) in assay [1], 4 µg/mL (≈ 12 µM) in assay [2] and 4 µg/mL (≈ 12 µM) in assay [3].

On to `CC(=O)NC[C@H]1CN(c2ccc([C@H]3[C@@H]4CN(C(=O)CO)C[C@@H]43)c(F)c2)C(=O)O1` [Example 5, N-[((5S)-3-{3-fluoro-4-[exo-(1R,5S)-3-glycoloyl-3-azabicyclo[3.1.0]hex-6-yl]phenyl}-2-oxo-1,3-oxazolidin-5-yl)methyl]acetamide], for which the figures for the MIC in assay [1], in assay [2] and in assay [3] were 0.25 µg/mL (≈ 0.639 µM), 4 µg/mL (≈ 10.2 µM) and 2 µg/mL (≈ 5.11 µM), respectively.

For the compound `O=C(CO)N1C[C@@H]2[C@H](C1)[C@H]2c1ccc(N2C[C@H](CNC(=S)C(F)F)OC2=O)cc1F` [Example 6, 2,2-difluoro-N-[((5S)-3-{3-fluoro-4-[exo-(1R,5S)-3-gycoloyl-3-azabicyclo[3.1.0]hex-6-yl]phenyl}-2-oxo-1,3-oxazolidin-5-yl)methyl]ethanethioamide], the MIC in assay [1] came out at 0.25 µg/mL (≈ 0.564 µM); in assay [2], 4 µg/mL (≈ 9.02 µM); in assay [3], 0.5 µg/mL (≈ 1.13 µM).

As for `COC(=O)N1C[C@@H]2C(c3ccc(N4C[C@H](CNC(C)=O)OC4=O)cc3F)[C@@H]2C1` (stereo partly drawn) [Example 7, methyl exo-(1R,5S)-6-(4-{(5S)-5-[(acetylamino)methyl]-2-oxo-1,3-oxazolidin-3-yl}-2-fluorophenyl)-3-azabicyclo[3.1.0]hexane-3-carboxylate], the “S. pneumoniae UC9912 MIC” value in assay [1] worked out at 0.5 µg/mL. Besides, the “S. aureus UC9213 MIC” value in assay [3] turned out to be 2 µg/mL.

Consider `CC(=O)NC[C@H]1CN(c2ccc([C@H]3[C@@H]4CN(C=O)C[C@@H]43)c(F)c2)C(=O)O1` [Example 8, N-[((5S)-3-{3-fluoro-4-[exo-(1R,5S)-3-formyl-3-azabicyclo[3.1.0]hex-6-yl]phenyl}-2-oxo-1,3-oxazolidin-5-yl)methyl]acetamide], for which the MIC in assay [1] is 1 µg/mL (≈ 2.77 µM); in assay [2], 8 µg/mL (≈ 22.1 µM); in assay [3], 4 µg/mL (≈ 11.1 µM).

As to `CC(=O)NC[C@H]1CN(c2ccc([C@H]3[C@@H]4CN(C(=O)[C@@H](O)CO)C[C@@H]43)c(F)c2)C(=O)O1` [Example 9, N-[((5S)-3-{3-fluoro-4-[exo-(1R,5S)-3-((2S)-2,3-dihydroxypropanoyl)-3-azabicyclo[3.1.0]hex-6-yl]phenyl}-2-oxo-1,3-oxazolidin-5-yl)methyl]acetamide], the results for the MIC in assay [1], in assay [2] and in assay [3] were 1 µg/mL (≈ 2.37 µM), 8 µg/mL (≈ 19 µM) and 8 µg/mL (≈ 19 µM), respectively.

Turning to `CC(=O)NC[C@H]1CN(c2ccc([C@H]3[C@@H]4CN(C(N)=O)C[C@@H]43)c(F)c2)C(=O)O1` [Example 10, exo-(1R,5S)-6-(4-{(5S)-5-[(acetylamino)methyl]-2-oxo-1,3-oxazolidin-3-yl}-2-fluorophenyl)-3-azabicyclo[3.1.0]hexane-3-carboxamide], the MIC in assay [1] stood at 0.5 µg/mL (≈ 1.33 µM); in assay [2], 4 µg/mL (≈ 10.6 µM); in assay [3], 2 µg/mL (≈ 5.31 µM).

As for `NC(=O)N1C[C@@H]2[C@H](C1)[C@H]2c1ccc(N2C[C@H](CNC(=S)C(F)F)OC2=O)cc1F` [Example 11, exo-(1R,5S)-6-[4-((5S)-5-{[(2,2-difluoroethanethioyl)amino]methyl}-2-oxo-1,3-oxazolidin-3-yl)-2-fluorophenyl]-3-azabicyclo[3.1.0]hexane-3-carboxamide], the MIC in assay [1] was 0.25 µg/mL (≈ 0.584 µM); in assay [2], 2 µg/mL (≈ 4.67 µM); in assay [3], 0.5 µg/mL (≈ 1.17 µM).

With `CC(=O)NC[C@H]1CN(c2cc(F)c([C@H]3[C@@H]4C[S+]([O-])C[C@@H]43)c(F)c2)C(=O)O1` (stereo partly drawn) [Example 12, N-[((5S)-3-{3,5-difluoro-4-[exo-(1R,5S)-3-oxido-3-thiabicyclo[3.1.0]hex-6-yl]phenyl}-2-oxo-1,3-oxazolidin-5-yl)methyl]acetamide], the “S. pneumoniae UC9912 MIC” value in assay [1] was determined as 0.5 µg/mL. The “H. influenzae 30063 MIC” value in assay [2] (agar dilution) came to 4 µg/mL. Besides, the “S. aureus UC9213 MIC” value in assay [3] turned out to be 1 µg/mL.

Take `CC(=O)NC[C@H]1CN(c2cc(F)c([C@H]3[C@@H]4CS(=O)(=O)C[C@@H]43)c(F)c2)C(=O)O1` [Example 13, N-[((5S)-3-{4-[exo-(1R,5S)-3,3-dioxido-3-thiabicyclo[3.1.0]hex-6-yl]-3,5-difluorophenyl}-2-oxo-1,3-oxazolidin-5-yl)methyl]acetamide]: the MIC is 0.5 µg/mL (≈ 1.25 µM) in assay [1], 8 µg/mL (≈ 20 µM) in assay [2] and 1 µg/mL (≈ 2.5 µM) in assay [3].

As for `CC(=O)NC[C@H]1CN(c2cc(F)c([C@H]3[C@@H]4COC[C@@H]43)c(F)c2)C(=O)O1` [Example 14, N-[((5S)-3-{3,5-difluoro-4-[exo-(1R,5S)-3-oxabicyclo[3.1.0]hex-6-yl]phenyl}-2-oxo-1,3-oxazolidin-5-yl)methyl]acetamide], the MIC in assay [1] worked out at 0.5 µg/mL (≈ 1.42 µM); in assay [2] it was 16 µg/mL (≈ 45.4 µM); in assay [3], 2 µg/mL (≈ 5.68 µM).

In the case of `CC(=O)NC[C@H]1CN(c2cc(F)c([C@H]3[C@@H]4CN(C(=O)CO)C[C@@H]43)c(F)c2)C(=O)O1` [Example 15, N-[((5S)-3-{3,5-difluoro-4-[exo-(1R,5S)-3-glycoloyl-3-azabicyclo[3.1.0]hex-6-yl]phenyl}-2-oxo-1,3-oxazolidin-5-yl)methyl]acetamide], the MIC in assay [1] came out at 0.5 µg/mL (≈ 1.22 µM); in assay [2] it was 16 µg/mL (≈ 39.1 µM); in assay [3], 2 µg/mL (≈ 4.89 µM).

As to `CC(=O)NC[C@H]1CN(c2ccc([C@H]3[C@@H]4COC[C@@H]43)cc2)C(=O)O1` [Example 16, N-[((5S)-3-{4-[exo-(1R,5S)-3-oxabicyclo[3.1.0]hex-6-yl]phenyl}-2-oxo-1,3-oxazolidin-5-yl)methyl]acetamide], the MIC stood at 2 µg/mL (≈ 6.32 µM) in assay [1], 16 µg/mL (≈ 50.6 µM) in assay [2] and 4 µg/mL (≈ 12.6 µM) in assay [3].

In the case of `CC(=O)NC[C@H]1CN(c2ccc([C@H]3[C@@H]4CN(C(=O)CO)C[C@@H]43)cc2)C(=O)O1` [Example 17, N-[((5S)-3-{4-[exo-(1R,5S)-3-glycoloyl-3-azabicyclo[3.1.0]hex-6-yl]phenyl}-2-oxo-1,3-oxazolidin-5-yl)methyl]acetamide], the results for the MIC in assay [1], in assay [2] and in assay [3] were 2 µg/mL (≈ 5.36 µM), 8 µg/mL (≈ 21.4 µM) and 4 µg/mL (≈ 10.7 µM), respectively.

For `CC(=O)NC[C@H]1CN(c2ccc([C@H]3[C@@H]4C[S+]([O-])C[C@@H]43)cc2)C(=O)O1` (stereo partly drawn) [Example 18, N-[((5S)-3-{4-[exo-(1R,5S)-3-oxido-3-thiabicyclo[3.1.0]hex-6-yl]phenyl}-2-oxo-1,3-oxazolidin-5-yl)methyl]acetamide], the results for the MIC in assay [1], in assay [2] and in assay [3] were 0.5 µg/mL (≈ 1.44 µM), 4 µg/mL (≈ 11.5 µM) and 2 µg/mL (≈ 5.74 µM), respectively.
